This note sets out measurements from patent US9149523B2, “Compositions and methods for treating cancer and neurodegenerative diseases” (Yeda Research and Development Co. Ltd., priority 2010, dated 2015).

Structures are written as SMILES.

The target of the assay is T1, DAPk WT (Homo sapiens, UniProt P53355).
T1 construct: Plasmids encoding N-terminal Flag and hemaglutinin (HA)-tagged human full-length DAPk (Flag-DAPk and HA-DAPk); made in house; host or cells: HEK 293T cells, transient transfection; anti-FLAG M2 immunoprecipitation, elution with FLAG peptide
The experiment in a line: In vitro kinase assay (ELISA, hMLC Ser 19 phosphorylation). It counts as biochemical. Conditions: DAPk WT pre-incubated with GDP versus Gpp(NH)p (non-hydrolysable GTP analog); FIG. 4C. As to the method: Maxisorp™ multiwell polystyrene plates (Nunc, Langenselbold, Germany) were incubated at 4° C., overnight, with the indicated amounts of hMLC diluted in PBS. Plates were washed with PBST and blocked with 4% BSA (Sigma, City, State) diluted in PBS. The kinase reactions were then performed on the plate. Briefly, the wells were incubated with kinase buffer (50 mM Hepes, pH 7.5, 20 mM MgCl2, 0.1 mg/mL BSA, 50 mM β-glycerol phosphate, 50 μM ATP) containing 2.5 nM of the indicated enzyme, for 10 min. The reactions were stopped by addition of EDTA to final concentration of 25 mM. Plates were washed again with PBST and then incubated with rabbit anti MLC (Ser19) polyclonal antibody (Cell Signaling, Danvers, Mass.) at a 1:250 dilution in PBS. PBST wash was performed again and the plate incubated with HRP-conjugated goat anti rabbit IgG (Jackson ImmunoResearch, West Grove, Pa.). Detection was done with the HRP substrate ABTS. Where indicated the HRP read outs were plot using the Michaelis-Menten equation and the curves fit by the least squares method.
To determine the significance to DAPk's enzymatic activity of the ROC domain in general and of the GTP-binding in particular, in vitro kinase assays were performed. The assays were based on an ELISA format measuring phosphorylation of the DAPk substrate hMLC at Ser 19, using specific anti-phospho Ser19 antibodies. […]

T1 sequence (P53355 whole entry): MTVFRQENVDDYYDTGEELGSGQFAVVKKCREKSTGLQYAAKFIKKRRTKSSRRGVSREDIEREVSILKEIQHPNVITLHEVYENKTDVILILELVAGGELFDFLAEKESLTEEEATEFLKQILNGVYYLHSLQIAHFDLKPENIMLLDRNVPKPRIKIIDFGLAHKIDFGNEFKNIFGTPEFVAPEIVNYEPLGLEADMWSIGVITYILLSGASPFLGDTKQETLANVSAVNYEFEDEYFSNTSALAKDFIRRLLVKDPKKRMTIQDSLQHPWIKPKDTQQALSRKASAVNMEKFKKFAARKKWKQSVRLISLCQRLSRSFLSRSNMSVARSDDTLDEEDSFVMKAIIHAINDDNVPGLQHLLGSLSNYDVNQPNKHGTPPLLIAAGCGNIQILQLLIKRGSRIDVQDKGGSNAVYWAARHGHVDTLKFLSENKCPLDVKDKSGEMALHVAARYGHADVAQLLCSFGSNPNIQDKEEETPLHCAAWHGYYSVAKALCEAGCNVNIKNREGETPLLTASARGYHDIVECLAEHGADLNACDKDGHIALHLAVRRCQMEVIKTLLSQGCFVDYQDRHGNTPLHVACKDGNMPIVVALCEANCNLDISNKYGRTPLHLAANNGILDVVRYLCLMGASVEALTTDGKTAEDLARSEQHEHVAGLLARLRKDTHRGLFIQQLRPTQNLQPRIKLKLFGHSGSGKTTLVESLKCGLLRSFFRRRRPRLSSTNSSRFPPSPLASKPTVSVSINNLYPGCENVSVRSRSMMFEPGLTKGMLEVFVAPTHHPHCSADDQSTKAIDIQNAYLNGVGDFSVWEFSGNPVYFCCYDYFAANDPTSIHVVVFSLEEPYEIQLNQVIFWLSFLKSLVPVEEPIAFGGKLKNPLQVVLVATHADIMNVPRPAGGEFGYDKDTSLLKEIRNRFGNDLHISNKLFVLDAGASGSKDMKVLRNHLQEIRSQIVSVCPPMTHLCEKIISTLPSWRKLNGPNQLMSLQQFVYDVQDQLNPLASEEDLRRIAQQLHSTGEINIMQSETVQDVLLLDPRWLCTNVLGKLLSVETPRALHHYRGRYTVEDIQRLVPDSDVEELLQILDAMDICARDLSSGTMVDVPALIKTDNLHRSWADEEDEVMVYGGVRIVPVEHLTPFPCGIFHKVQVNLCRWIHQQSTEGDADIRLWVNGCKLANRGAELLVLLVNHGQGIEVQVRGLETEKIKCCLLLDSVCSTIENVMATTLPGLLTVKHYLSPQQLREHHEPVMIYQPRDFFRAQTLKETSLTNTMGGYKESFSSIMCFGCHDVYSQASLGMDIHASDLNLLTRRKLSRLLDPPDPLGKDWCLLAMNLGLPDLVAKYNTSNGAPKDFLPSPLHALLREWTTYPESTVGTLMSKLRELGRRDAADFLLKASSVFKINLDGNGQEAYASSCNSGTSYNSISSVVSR

For `Nc1nc2c(ncn2[C@@H]2O[C@H](COP(=O)(O)OP(=O)(O)O)[C@@H](O)[C@H]2O)c(=O)[nH]1` [GDP], the DAPk catalytic activity entry is on record as “increased catalytic activity”.
